In publication PMC11480511 (Scientific Reports, 2024):

Key:
[1] = tested on: melanoma LOX IMVI cell line; experiment: Annexin V-FITC/PI apoptosis and necrosis assay; assay type: cell-based, human; settings: LOX IMVI treated with IC50 concentration
Description: Following the manufacturer’s instructions, the Annexin V-FITC Apoptosis Detection Kit (Bio Vision Research Products, USA) was used to analyze cell apoptosis. Briefly, 500 µL of 1X Binding buffer was used to resuspend 1-5 × 10^5 cells that had been harvested by centrifugation. Propidium iodide (PI, 50 mg/ml) and Annexin V-FITC, each administered in 5 µL, were also added. The cells were first incubated for 5 minutes at room temperature in the dark before being analyzed using the Annexin V-FITC binding flow cytometric technique (Ex = 488 nm; Em = 530 nm) with a FITC signal detector (typically FL1) and PI staining with a phycoerythrin emission signal detector (typically FL2). Before exposing adherent cells to Annexin V-FITC, we gently trypsinized and gave them a single wash in serum-containing medium (A.3–5). Cell synchronisation is done using Double-thymidine synchronization method and the used Media is double modifed eagle media (DMEM).
Cell cycle analysis and detection of apoptosis
Annexin V-FITC apoptosis assay
Cell apoptosis were analyzed by the Annexin V-FITC Apoptosis Detection Kit (Bio Vision Research Products, USA). Thereafter, 1-5 x 10^5 cells were collected by centrifugation and resuspend in 500 μl of 1X Binding Buffer. Added 5 μl of Annexin V-FITC and 5 μl of propidium iodide (PI 50mg/ml, optional.). The cells incubated at room temperature for 5 min in the dark; Analyzed by Annexin V-FITC binding flow cytometric method (Ex = 488 nm; Em = 530 nm) using FITC signal detector (usually FL1) and PI staining by the phycoerythrin emission signal detector (usually FL2). For adherent cells, we gently trypsinized and washed cells once with serum-containing media before incubation with Annexin V-FITC (A.3-5). […]

normal cell line WI 38 = experiment: MTT cytotoxicity assay on normal cells; assay type: cell-based; settings: Homo sapiens; normal cell line WI 38, MTT assay, ± SEM; read-out: IC50 W138 normal cell line (µM ± SEM)
Description: After 24 h of culture incubation and supernatants discarded. […] Each test should include a blank containing complete medium without cells. […] Add reconstituted MTT in an amount equal to 10% of the culture medium volume. […] Spectrophotometrically absorbance was measured at a wavelength of 570 nm. […] Results from all experiments were recorded and the percentage of viable cells was calculated.

O=C(O)c1cn(C2CC2)c2cc(N3CCN(C(=O)CCCN4C(=O)S/C(=C\c5ccc(F)cc5)C4=O)CC3)c(F)cc2c1=O [3i]
Apoptosis Early [1]: 3.03%
Apoptosis Late [1]: 24.17%
Apoptosis Total [1]: 38.51%
Necrosis [1]: 11.31%
IC50 (normal cell line WI 38): 45.1 ± 2.43 µM
